# Details: mice, intratracheal administration, lungs
# From the text: FIG. 2 is a graphical representation of the biodistribution of ciprofloxacin in the lungs upon administration of ciprofloxacin in liposomal form by inhalation and in free form by inhalation and orally.
# The distribution following IT administration was compared with the distribution obtained in the lungs following an oral delivery of ciprofloxicin.
compound,measurement,value
"O=C(O)c1cn(C2CC2)c2cc(N3CCNCC3)c(F)cc2c1=O [free ciprofloxicin, ciprofloxicin]",lung level of ciprofloxicin over time,negligible after one hour

# From patent US20040009126A1, “Inhalation system for prevention and treatment of intracellular infections” (priority 2002, published 2004)
